Test results from US20230165970A1, “COMPOSITIONS AND METHODS FOR THE TREATMENT OF BACTERIAL INFECTIONS” (priority 2017, published 2023).
In brackets after ≈: the same amount, converted by molar mass. Read-outs that look alike come from different tables or passages of the source. *1 amine or outer side, *2 acyl side, *3 side chain or, on linkers, in order; H or OH if unused. Where a SMILES comes first, the peptide text is derived from it. Bridges are numbered along the chain shown (N, C = ends). [ ]: non-standard residue; d: D form. The star is where a group is joined. Propargyl(OCH2CH2)4CO = C#CCOCCOCCOCCOCCC(=O)*; X1 = CCCCCC[C@@H](O)[C@H](N[*:1])C(=O)[*:2]; dCha = N[C@H](CC1CCCCC1)C(=O)O; Dab = NCC[C@H](N)C(=O)O; azaGly = NNC(=O)O

Tests used:
[1] = tested on: Ec 25922; type: cell-based, Escherichia coli
Procedure, shortened: (§1)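 Twofold dilution series of each agent received bacterial cells from MHA plates (saline, ~0.1 OD600 nm), with RPMI B medium used for drug conjugates. Plates were shaken and held at 35° C overnight (16-20 h). LES431 was tested in presence and absence of 50% heat-inactivated fetal bovine serum.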

[2] = tested on: Ec 2469; type: cell-based, Escherichia coli
Procedure, shortened: as §1

[3] = tested on: Ab AB58705 (COL^R) IpxD, mut. (no LPS); type: cell-based, Acinetobacter baumannii; conditions: media CA-MHB
[4] = tested on: Ab 8990 (COL^R); type: cell-based, Acinetobacter baumannii
Procedure, shortened: as §1

[5] = tested on: Ab AB5075; type: cell-based, Acinetobacter baumannii
Procedure, shortened: as §1

[6] = tested on: Kp 10031; type: cell-based, Klebsiella pneumoniae
Procedure, shortened: as §1

[7] = tested on: Kp 6951 (COL^R); type: cell-based, Klebsiella pneumoniae
Procedure, shortened: as §1

[8] = tested on: Kp 43816; type: cell-based, Klebsiella pneumoniae
Procedure, shortened: as §1

[9] = tested on: Pa PAO1; type: cell-based, Pseudomonas aeruginosa; conditions: for MIC: PAO1
Procedure, shortened: as §1

[10] = tested on: Pa 27853; type: cell-based, Pseudomonas aeruginosa
Procedure, shortened: as §1

[11] = tested on: Pa LES431; type: cell-based, Pseudomonas aeruginosa
Procedure, shortened: as §1

[12] = tested on: Sa RN; type: cell-based
[13] = tested on: A. baumannii AB5075; type: cell-based
Description: (§2) Overnight stationary-phase cultures were centrifuged at 3,500×g for 10 min at room temperature and resuspended in 1×PBS to an optical density at 600 nm (OD600) of 0.4 (1×10^8 colony forming units [CFU]/ml) in RPMI with L-glutamine and phenol red (Life Technologies). Bacteria were diluted 1:25 in RPMI ([…]) and 10 ul added to wells of a non-binding 96-well plate (Corning 3641) containing 80 ul of 50% hirudin anti-coagulated blood (complement active) in RPMI. […] MBC was defined as the minimum conjugate concentration required for bacterial clearance (Table 8A and Table 8B). An untreated growth control (40% blood, 0 ug/ml conjugate) was included in all assays as a growth comparator.
(§3) MBC was defined as the minimum compound concentration required for complete bacterial clearance (Table 18).
(§4) In most cases, 2-4 fold improvements in antibacterial activity for the conjugates are observed in the presence of complement active human blood.

[14] = tested on: P. aeruginosa PAO1; type: cell-based
Description: as §2, §3, §4

[15] = tested on: E. coli ATCC 25922; type: cell-based
Description: as §2, §3, §4

[16] = tested on: Ab 19606 (COLhet^R); type: cell-based, Acinetobacter baumannii; conditions: media CA-MHB
[17] = tested on: Ec AR0349 (mcr-1, COL^R); type: cell-based, Escherichia coli; conditions: media CA-MHB
[18] = tested on: Ec 25922 64X-1 (COL^R); type: cell-based, Escherichia coli; conditions: media CA-MHB
[19] = tested on: E. coli 25922; conditions: 3.0 mg/kg IP qd at T+1 hour; 72 hours after bacterial challenge; N=3
Description: In vivo screening of selected compounds was accomplished in an E. coli bacteremia model (N=3). Efficacy was assessed in an animal model of infection using CD-1 mice by evaluating bacteremia in immune competent mice challenged with 2× the LD95 of E. coli 25922 (dosed qd, intraperitoneally (IP) at T+1 hour, survival endpoint).
Colistin (COL) and Int-17 were dosed at 0.3 mg/kg and Int-41 was dosed at 3.0 mg/kg. Percent survival was determined 72 hours after bacterial challenge. Compounds with MICs against E. coli 25922 of less than 4 μg/ml were evaluated in the bacteremia model.
Int-115 and Int-118 were evaluated for potency in a lethal model of bacteremia. […] Test articles were dissolved in 1× PBS and injected IV at a dose volume of 10 ml/kg one hour following bacterial challenge. Animals were monitored twice daily and mortality scored over three days.
CD-1 mice were used for bacteremia, C57BL/6J mice for endotoxemia. The endpoint was survival after three days for both models.

[20] = tested on: A. baumannii AB5075; experiment: A. baumannii lung infection model, lung CFU burden (C57Bl/6J mice); type: in vivo, Acinetobacter baumannii; conditions: 24 h time point; conjugates 50 mpk IP at t=−12 h and t=+1 h; AZM 25 mpk SC once at t=+1 h; n=5
Description: A. baumannii AB5075 was grown to log-phase in LB at 37° C., 200 rpm shaking. Bacteria were washed once with PBS via centrifugation at 4,000 rpm. Bacteria were adjusted to desired concentration in PBS.
Prior to infection, 8-week-old female C57BI/6J mice (Jackson Labs) were anesthetized with 100 mg/kg ketamine and 10 mg/kg xylazine. Using an otoscope, mice were infected directly into the trachea. For CFU burden studies mice were infected with 2×10^7 CFU in 30 μL PBS. At 24 h post-infection mice were sacrificed by CO2 and both lung lobes were harvested. Lungs were homogenized with 1 mm silica beads in 1 mL PBS using a MagNA Lyser (Roche). Homogenization was carried out at 6,000 rpm for 60 s and chilled on ice for 60 s in-between runs. Lung homogenate was diluted in PBS ranging from 10^−1 to 10^−8, plated on LB plates and incubated at 37° C. overnight. The next day. CFU were enumerated and surviving CFU calculated relative to weight of the lung. […] Conjugates or hIgG1 (50 mpk) were administered intraperitoneally at t=−12 h pre-infection and t=+1 h post-infection. Azithromycin (Fresenius-Kabi) was administered subcutaneously once at t=+1 h post-infection. Efficacy of ADC conjugates (50 mpk) was determined upon intratracheal infection of A. baumannii AB5075. For CFU burden studies, mice (n=5 per group) were infected with 3×10^7 bacteria, sacrificed and lung CFU burden determined at 24 h time point.

Row | Structure (SMILES) | MIC [1] [µg/mL] | MIC [2] [µg/mL] | MIC [5] [µg/mL] | MIC [6] [µg/mL] | MIC [7] [µg/mL] | MIC [8] [µg/mL] | MIC [9] [µg/mL] | MIC [10] [µg/mL] | MIC [11] [µg/mL] | MIC [12] [µg/mL] | MIC [16] [µg/mL] | MIC [17] [µg/mL] | MIC [18] [µg/mL] | also measured
1 | C#CCOCCOCCOCCOCCC(=O)N[C@@H](CCN)C(=O)N[C@H](C(=O)NNC(=O)N[C@H]1CCNC(=O)[C@H]([C@@H](C)O)NC(=O)[C@H](CCN)NC(=O)[C@H](CCN)NC(=O)[C@H](CC(C)C)NC(=O)[C@@H](CC2CCCCC2)NC(=O)[C@H](CCN)NC1=O)[C@H](O)CCCCCC [Int-115] ({Propargyl(OCH2CH2)4CO}-[Dab][X1][azaGly][Dab][Dab][dCha]L[Dab][Dab]T; lactam 4-C) | 2 (≈ 1.49 µM) | 2 (≈ 1.49 µM) | 2 (≈ 1.49 µM) | 2 (≈ 1.49 µM) | 128 (≈ 95.5 µM) | 2 (≈ 1.49 µM) | 8 (≈ 5.97 µM) | 4 (≈ 2.99 µM) | 4 (≈ 2.99 µM) | >128 | 4 (≈ 2.99 µM) | 16 (≈ 11.9 µM) | 64 (≈ 47.8 µM) | MIC in RPMI EC 25922 ([1]; pH 7.4): 2.23 µg/mL (≈ 1.66 µM); MIC [3]: 64 µg/mL (≈ 47.8 µM); MIC ([4]; Ab 8990 (COL^R), media CA-MHB): >128 µg/mL; MIC in RPMI AB 5075 ([5]; pH 7.4): 1.11 µg/mL (≈ 0.829 µM); MIC in RPMI PA 01 ([9]; PAO1, pH 7.4): 8.91 µg/mL (≈ 6.65 µM); MBC in blood AB 5075 [13]: 0.05 µg/mL (≈ 0.0373 µM); MBC in blood PA 01 [14]: >0.2 µg/mL; MBC in blood EC 25922 [15]: 0.05 µg/mL (≈ 0.0373 µM)
2 | C#CCOCCOCCOCCOCCCNC(=O)CN(CC(=O)N[C@@H](CCCC)C(=O)N[C@@H](CCN)C(=O)N[C@H](C(=O)N[C@@H](CCN)C(=O)N[C@H]1CCNC(=O)[C@H]([C@@H](C)O)NC(=O)[C@H](CCN)NC(=O)[C@H](CCN)NC(=O)[C@H](CC(C)C)NC(=O)[C@@H](Cc2ccccc2)NC(=O)[C@H](CCN)NC1=O)[C@H](O)CCC)C(=C)N[C@@H](CCCC)C(=O)N[C@@H](CCN)C(=O)N[C@H](C(=O)N[C@@H](CCN)C(=O)N[C@H]1CCNC(=O)[C@H]([C@@H](C)O)NC(=O)[C@H](CCN)NC(=O)[C@H](CCN)NC(=O)[C@H](CC(C)C)NC(=O)[C@@H](Cc2ccccc2)NO[C@H](CCN)NC1=O)[C@H](O)CCC [Int-41] | 4 (≈ 1.45 µM) | 2 (≈ 0.724 µM) | 4 (≈ 1.45 µM) | 4 (≈ 1.45 µM) | 16 (≈ 5.79 µM) | 4 (≈ 1.45 µM) | 2 (≈ 0.724 µM) | 2 (≈ 0.724 µM) | 2 (≈ 0.724 µM) | >128 | 4 (≈ 1.45 µM) | 4 (≈ 1.45 µM) | 4 (≈ 1.45 µM) | MIC E. coli ATCC 25922, No serum [1]: 4 µg/mL (≈ 1.45 µM); MIC E. coli ATCC 25922, Serum [1]: 1 µg/mL (≈ 0.362 µM); % Survival (IP, QD) [19]: 67%; MIC [4]: 128 µg/mL (≈ 46.3 µM)
3 | CC[C@H]1OC(=O)[C@H](C)[C@@H](O[C@H]2C[C@@](C)(OC)[C@@H](O)[C@H](C)O2)[C@H](C)[C@@H](O[C@@H]2O[C@H](C)C[C@H](N(C)C)[C@H]2O)[C@](C)(O)C[C@@H](C)CN(C)[C@H](C)[C@@H](O)[C@]1(C)O [azithromycin (AZM), azithromycin, reference compound] |  |  |  |  |  |  |  |  |  |  |  |  |  | reduction of lung CFU burden [20]: 0.76 logs
